Experimental findings from patent publication US20230117034A1, “PYRAZOLOTRIAZINES” (Bayer Aktiengesellschaft, priority 2019, published 2023) are described below.

The subject of test [1] is MDA-MB-231, human breast cancer cells. Briefly: Proliferation assay MDA-MB-231 (crystal violet, 4 days). The format is cell-based. Conditions: Homo sapiens, MDA-MB-231, 96 h, MDA-MB-231 cells, median, read-out: Prolif-MDA MB-231, IC50-[mol/l] (median). An outline of the steps:
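IC50 from a 4-parameter fit of crystal violet absorbance (595 nm), scaled between the day-of-dosing plate (0%) and vehicle cells (100%). MDA-MB-231 or CAL-120 cells were treated for 4 days with 0.01–10 micromol/L compound in 0.1% DMSO after 24 h attachment.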

A further test concerns the target T1, CDK2/CycE (Homo sapiens, UniProt P24941).
T1 construct: purchased ProQinase GmbH (Freiburg, Germany); host or cells: insect cells (Sf9)
Briefly: CDK2/CycE kinase assay (TR-FRET, 2 mM ATP). The class given is biochemical. Conditions: 2 mM ATP (high ATP); median; read-out: CDK2/CyclinE, 2 mM ATP (high ATP), IC50 (median). The gist of the method:
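Biotin-peptide phosphorylation (0.75 µM substrate, 2 mM ATP final, 25 min, 22 °C) by Sf9-expressed GST-CDK2/GST-CycE, after a 15-min compound pre-binding step. Inhibition scaled between enzyme-free (100%) and uninhibited (0%) wells.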

With `CC(C)COc1nc(NCc2nc3ccccc3[nH]2)n2ncc(Br)c2n1` [Example 409, N-[(1H-benzimidazol-2-yl)methyl]-8-bromo-2-(2-methylpropoxy)pyrazolo[1,5-a][1,3,5]triazin-4-amine], the IC50 amounted to 343 nM in test [1] and 12800 nM on CDK2/CycE.

Turning to `Cc1cnn2c(NCc3nc4ccccc4[nH]3)nc(N3CCOCC3)nc12` [Example 393, N-[(1H-benzimidazol-2-yl)methyl]-8-methyl-2-(morpholin-4-yl)pyrazolo[1,5-a][1,3,5]triazin-4-amine], the IC50 was 120 nM in test [1] and 9940 nM on CDK2/CycE.

In the case of `Brc1cnn2c(NCc3nc4ccccc4[nH]3)nc(OCCN3CCCC3)nc12` [Example 404, N-[(1H-benzimidazol-2-yl)methyl]-8-bromo-2-[2-(pyrrolidin-1-yl)ethoxy]pyrazolo[1,5-a][1,3,5]triazin-4-amine], the IC50 in test [1] was 1840 nM; at CDK2/CycE, greater than 20000 nM.

As for `Cc1cnn2c(NCc3nc4ccccc4[nH]3)nc(N3CCN(C)CC3)nc12` [Example 396, N-[(1H-benzimidazol-2-yl)methyl]-8-methyl-2-(4-methylpiperazin-1-yl)pyrazolo[1,5-a][1,3,5]triazin-4-amine], the IC50 turned out to be 157 nM in test [1] and 13900 nM on CDK2/CycE.

As for `CN1CCN(c2nc(NCc3nc4cc(Cl)c(Cl)cc4[nH]3)n3ncc(-c4cnn(C)c4)c3n2)CC1` [Example 420, N-[(5,6-dichloro-1H-benzimidazol-2-yl)methyl]-2-(4-methylpiperazin-1-yl)-8-(1-methyl-1H-pyrazol-4-yl)pyrazolo[1,5-a][1,3,5]triazin-4-amine], the IC50 in test [1] was 525 nM; on CDK2/CycE, greater than 20000 nM.

For `CN(C)CCOc1nc(NCc2nc3ccccc3[nH]2)n2ncc(Br)c2n1` [Example 399, N-[(1H-benzimidazol-2-yl)methyl]-8-bromo-2-[2-(dimethylamino)ethoxy]pyrazolo[1,5-a][1,3,5]triazin-4-amine], the results for the IC50 (in test [1]; on CDK2/CycE) were 384 nM and greater than 20000 nM, respectively.

As to `Cc1cnn2c(NCc3nc4ccccc4[nH]3)nc(N3CC4CCC(C3)N4)nc12` [Example 401, N-[(1H-benzimidazol-2-yl)methyl]-2-(3,8-diazabicyclo[3.2.1]octan-3-yl)-8-methylpyrazolo[1,5-a][1,3,5]triazin-4-amine], the values for the IC50 (in test [1]; at CDK2/CycE) were 132 nM and greater than 20000 nM, respectively.

Take `COc1cccc2nc(CNc3nc(N4CCOCC4)nc4c(-c5ccnnc5)cnn34)[nH]c12.O=C(O)C(F)(F)F` [Example 439, trifluoroacetic acid N-[(7-methoxy-1H-benzimidazol-2-yl)methyl]-2-(morpholin-4-yl)-8-(pyridazin-4-yl)pyrazolo[1,5-a][1,3,5]triazin-4-amine]: the IC50 was 180 nM in test [1] and greater than 20000 nM on CDK2/CycE.

Regarding `Cn1cc(-c2cnn3c(NCc4nc5cc(Cl)c(Cl)cc5[nH]4)nc(N4CCOCC4)nc23)cn1` [Example 419, N-[(5,6-dichloro-1H-benzimidazol-2-yl)methyl]-8-(1-methyl-1H-pyrazol-4-yl)-2-(morpholin-4-yl)pyrazolo[1,5-a][1,3,5]triazin-4-amine], the results for the IC50 (in test [1]; on CDK2/CycE) were 228 nM and greater than 20000 nM, respectively.

Take `COc1cccc2nc(CNc3nc(N4CCN(C)CC4)nc4c(-c5nccs5)cnn34)[nH]c12` [Example 416, N-[(7-methoxy-1H-benzimidazol-2-yl)methyl]-2-(4-methylpiperazin-1-yl)-8-(1,3-thiazol-2-yl)pyrazolo[1,5-a][1,3,5]triazin-4-amine]: the results for the IC50 (in test [1]; at CDK2/CycE) were 986 nM and greater than 20000 nM, respectively.

In the case of `NCCOCCOCCNc1nc(NCc2nc3ccccc3[nH]2)n2ncc(Br)c2n1` [Example 412, N2-{2-[2-(2-aminoethoxy)ethoxy]ethyl}-N4-[(1H-benzimidazol-2-yl)methyl]-8-bromopyrazolo[1,5-a][1,3,5]triazine-2,4-diamine], the figures for the IC50 (in test [1]; on CDK2/CycE) were 1910 nM and greater than 20000 nM, respectively.

For the compound `COc1cccc2[nH]c(CNc3nc(N4CCOCC4)nc4c(-c5nccs5)cnn34)nc12` [Example 414, N-[(4-methoxy-1H-benzimidazol-2-yl)methyl]-2-(morpholin-4-yl)-8-(1,3-thiazol-2-yl)pyrazolo [1,5-a][1,3,5]triazin-4-amine], the IC50 was 687 nM in test [1] and greater than 20000 nM on CDK2/CycE.

As for `CN1CCN(c2nc(NCc3nc4ccccc4[nH]3)n3ncc(CC(F)(F)F)c3n2)CC1` [Example 436, N-[(1H-benzimidazol-2-yl)methyl]-2-(4-methylpiperazin-1-yl)-8-(2,2,2-trifluoroethyl)pyrazolo [1,5-a][1,3,5]triazin-4-amine], the results for the IC50 (in test [1]; on CDK2/CycE) were 416 nM and greater than 20000 nM, respectively.

For the compound `O=C(O)C(F)(F)F.c1ccc2[nH]c(CNc3nc(N4CCOCC4)nc4c(-c5ccnnc5)cnn34)nc2c1` [Example 438, trifluoroacetic acid N-[(1H-benzimidazol-2-yl)methyl]-2-(morpholin-4-yl)-8-(pyridazin-4-yl)pyrazolo[1,5-a][1,3,5]triazin-4-amine], the IC50 in test [1] was 283 nM; at CDK2/CycE it was greater than 20000 nM.

Regarding `COC(C)(C)COc1nc(NCc2nc3ccccc3[nH]2)n2ncc(Br)c2n1` [Example 403, N-[(1H-benzimidazol-2-yl)methyl]-8-bromo-2-(2-methoxy-2-methylpropoxy)pyrazolo[1,5-a][1,3,5]triazin-4-amine], the results for the IC50 (in test [1]; on CDK2/CycE) were 524 nM and greater than 20000 nM, respectively.

`Brc1cnn2c(NCc3nc4ccccc4[nH]3)nc(OC3CCOCC3)nc12` [Example 405, N-[(1H-benzimidazol-2-yl)methyl]-8-bromo-2-[(oxan-4-yl)oxy]pyrazolo[1,5-a][1,3,5]triazin-4-amine]: the figures for the IC50 (in test [1]; on CDK2/CycE) were 439 nM and greater than 20000 nM, respectively.

Regarding `CN1CCN(c2nc(NCc3nc4ccccc4[nH]3)n3ncc(C4CC4(F)F)c3n2)CC1` (stereo not shown) [Example 428, N-(1H-benzimidazol-2-ylmethyl)-8-(2,2-difluorocyclopropyl)-2-(4-methylpiperazin-1-yl)pyrazolo[1,5-a][1,3,5]triazin-4-amine], the IC50 in test [1] was 174 nM; on CDK2/CycE, greater than 20000 nM.

`Brc1cnn2c(NCc3nc4ccccc4[nH]3)nc(OC3CCCCC3)nc12` [Example 406, N-[(1H-benzimidazol-2-yl)methyl]-8-bromo-2-(cyclohexyloxy)pyrazolo[1,5-a][1,3,5]triazin-4-amine]: the IC50 in test [1] amounted to 283 nM; on CDK2/CycE it was 15000 nM.

On to `CC(C)(O)COc1nc(NCc2nc3ccccc3[nH]2)n2ncc(Br)c2n1` [Example 398, 1-[(4-{[(1H-benzimidazol-2-yl)methyl]amino}-8-bromopyrazolo[1,5-a][1,3,5]triazin-2-yl)oxy]-2-methylpropan-2-ol], for which the results for the IC50 (in test [1]; on CDK2/CycE) were 59.2 nM and 10400 nM, respectively.

Consider `CN1CCN(c2nc(NCc3nc4c(F)c(F)ccc4[nH]3)n3ncc(-c4nccs4)c3n2)CC1` [Example 415, N-[(4,5-difluoro-1H-benzimidazol-2-yl)methyl]-2-(4-methylpiperazin-1-yl)-8-(1,3-thiazol-2-yl)pyrazolo[1,5-a][1,3,5]triazin-4-amine], for which the IC50 in test [1] was 584 nM; at CDK2/CycE, greater than 20000 nM.
